Assay results as given in US12240818B2, “Crystalline forms of plasma kallikrein inhibitors” (Rezolute, Inc., priority 2019, dated 2025).

Assays:
[1] = Aqueous solubility of solid forms; format: physicochemical; details: for aqueous solubility: at 25° C., acetate
[2] = system: patients with hereditary angioedema; details: cited from earlier work
[3] = system: angiotensin-II-treated rodents; details: cited from earlier work
[4] = system: model of hemorrhagic stroke; details: cited from earlier work
[5] = system: rat model of ischemic stroke; details: cited from earlier work
[6] = system: animal model of ischemic stroke; details: cited from earlier work
[7] = Grinding stability of crystalline forms (XRPD, thermal); format: physicochemical
Procedure: X-Ray Powder Diffraction patterns were collected under ambient conditions (about 20° C.) on a PANalytical X'Pert PRO X-ray diffractometer (Malvern Panalytical, Malvern, UK) using Cu Kα radiation (45 kV, 40 mA), θ-θ goniometer, focusing mirror, divergence slit (½″), Soller slits at both incident and divergent beam (4 mm), a transmission foil sample stage (Kapton® polyimide, 12.7 μm thickness film), and a PIXcel detector. The software used for data collection was X'Pert Data Collector, version 2.2f, and the data was presented using X'Pert Data Viewer, version 1.2d. The data collection range was 2.994-35°2θ with a continuous scan speed of 0.202004° s^−1.
Differential scanning calorimetry data was collected on a PerkinElmer Pyris 6000 DSC equipped with a 45 position sample holder. The instrument was verified for energy and temperature calibration using certified indium. In the examples below, a predefined amount of the sample (0.5-3.0 mg) was placed in a pin holed aluminum pan and heated at 20° C./min from 30° C. to 350° C., or varied as experimentation dictated. A purge of dry nitrogen at 20 mL/min was maintained over the sample. The instrument control, data acquisition and analysis were performed with Pyris Software v11.1.1 revision H.
Thermo-Gravimetric Analysis data was collected on a PerkinElmer Pyris 1 TGA equipped with a 20 position auto-sampler. The instrument was calibrated using a certified weight and certified Alumel and Perkalloy for temperature. In the examples below, a predefined amount of the sample (˜5 mg) was loaded onto a pre-tared aluminum crucible and was heated at 20° C./min from ambient temperature to 400° C. unless otherwise stated. A nitrogen purge at 20 mL/min was maintained over the sample. The instrument control, data acquisition and analysis were performed with Pyris Software v11.1.1 revision H.
Samples of both Form I and Form II (about 100 mg each) were subjected to grinding operations to assess the impact on solid form and observed microscopy. It was of interest to note whether amorphous content was generated, and to review the impact upon water content for the batches, especially with regards to Form II hydrate.

[8] = Compression stability of crystalline forms (XRPD, TGA, DSC); format: physicochemical; details: compression under 11×10^5 N force for about 25-28 hours; acetate
Procedure: X-Ray Powder Diffraction patterns were collected under ambient conditions (about 20° C.) on a PANalytical X'Pert PRO X-ray diffractometer (Malvern Panalytical, Malvern, UK) using Cu Kα radiation (45 kV, 40 mA), θ-θ goniometer, focusing mirror, divergence slit (½″), Soller slits at both incident and divergent beam (4 mm), a transmission foil sample stage (Kapton® polyimide, 12.7 μm thickness film), and a PIXcel detector. The software used for data collection was X'Pert Data Collector, version 2.2f, and the data was presented using X'Pert Data Viewer, version 1.2d. The data collection range was 2.994-35°2θ with a continuous scan speed of 0.202004° s^−1. Differential scanning calorimetry data was collected on a PerkinElmer Pyris 6000 DSC equipped with a 45 position sample holder. The instrument was verified for energy and temperature calibration using certified indium. In the examples below, a predefined amount of the sample (0.5-3.0 mg) was placed in a pin holed aluminum pan and heated at 20° C./min from 30° C. to 350° C., or varied as experimentation dictated. A purge of dry nitrogen at 20 mL/min was maintained over the sample. The instrument control, data acquisition and analysis were performed with Pyris Software v11.1.1 revision H. Thermo-Gravimetric Analysis data was collected on a PerkinElmer Pyris 1 TGA equipped with a 20 position auto-sampler. The instrument was calibrated using a certified weight and certified Alumel and Perkalloy for temperature. In the examples below, a predefined amount of the sample (˜5 mg) was loaded onto a pre-tared aluminum crucible and was heated at 20° C./min from ambient temperature to 400° C. unless otherwise stated. A nitrogen purge at 20 mL/min was maintained over the sample. The instrument control, data acquisition and analysis were performed with Pyris Software v11.1.1 revision H. The manufacturing process for solid dosage forms can require high compression and/or grinding, which may cause a change in crystal structure for some compounds. Compound 1 Form I and Form II were subjected to compression under 11×10^5N force for about 25-28 hours to assess the impact of compression upon the form stability of these crystalline forms.

[9] = system: mouse model of middle cerebral artery occlusion; details: cited from earlier work

CC(=O)O.N=C(N)c1ccc(CNC(=O)c2cnn(Cc3ccccc3)c2)cc1 [Form V, 1-benzyl-N-(4-carbamimidoylbenzyl)-1H-pyrazole-4-carboxamide acetate]
aqueous solubility [1]: about 7.1 mg/mL

NC(N)=NCCC[C@@H](N)C(=O)N[C@@H](CCCN=C(N)N)C(=O)N1CCC[C@H]1C(=O)N1C[C@H](O)C[C@H]1C(=O)NCC(=O)N[C@@H](Cc1cccs1)C(=O)N[C@@H](CO)C(=O)N1Cc2ccccc2C[C@@H]1C(=O)N1[C@H](C(=O)N[C@@H](CCCN=C(N)N)C(=O)O)C[C@@H]2CCCC[C@@H]21 [icatibant]
effect on hereditary angioedema [2]: effective

CC(=O)O.N=C(N)c1ccc(CNC(=O)c2cnn(Cc3ccccc3)c2)cc1 [Compound 1, 1-benzyl-N-(4-carbamimidoylbenzyl)-1H-pyrazole-4-carboxamide acetate salt]
retinal vascular permeability [3]: reduce retinal vascular permeability | expansion of intracerebral hemorrhage [4]: reduce | infarction volume and cerebrovascular edema [5]: reduce infarction volume and cerebrovascular edema

CC(=O)O.N=C(N)c1ccc(CNC(=O)c2cnn(Cc3ccccc3)c2)cc1 [Form III, 1-benzyl-N-(4-carbamimidoylbenzyl)-1H-pyrazole-4-carboxamide acetate]
aqueous solubility [1]: about 7.2 mg/mL

Ecallantide
brain edema, infarct volume and neurological deficits [6]: reduced brain edema, infarct volume and neurological deficits | effect on hereditary angioedema [2]: alleviates edema

CC(=O)O.N=C(N)c1ccc(CNC(=O)c2cnn(Cc3ccccc3)c2)cc1 [Form II, 1-benzyl-N-(4-carbamimidoylbenzyl)-1H-pyrazole-4-carboxamide acetate]
change of solid form post-grinding (thermal, XRPD) ([7]; about 100 mg ground): minor alteration in reflection resolution and intensity | water content post-grinding ([7]; after grinding): 3.93 wt % | water content at point of production ([7]; before grinding): 2.76 wt % | DSC thermograph change following compression [8]: reduction in the intensity, but increase of the temperature of the main melt endotherm | TGA thermograph change following compression [8]: slight increase in the water content | XRPD pattern change following compression [8]: significant change in the diffraction pattern to a pattern of reduced crystallinity | aqueous solubility [1]: about 5.5 mg/mL

Hoe-140 [reference compound]
retinal vascular permeability [3]: reduce retinal vascular permeability

CC(=O)O.N=C(N)c1ccc(CNC(=O)c2cnn(Cc3ccccc3)c2)cc1 [Form I, 1-benzyl-N-(4-carbamimidoylbenzyl)-1H-pyrazole-4-carboxamide acetate]
stability under manual stress ([7]; compression and grinding, summary): superior stability to hydrated Form II | DSC thermograph change following compression [8]: reduction in the intensity and temperature of the melt endotherm | TGA thermograph change following compression [8]: no change in the TGA thermograph | XRPD pattern change following compression [8]: subtle reduction in diffraction resolution | solubility ([1]; water, 25 °C): ~8300 µg/mL

B1: C1-INH: the major endogenous inhibitor of PK (protein, UniProt P05155 23-500, looked up)
Plasma protease C1 inhibitor: NPNATSSSSQDPESLQDRGEGKVATTVISKMLFVEPILEVSSLPTTNSTTNSATKITANTTDEPTTQPTTEPTTQPTIQPTQPTTQLPTDSPTQPTTGSFCPGPVTLCSDLESHSTEAVLGDALVDFSLKLYHAFSAMKKVETNMAFSPFSIASLLTQVLLGAGENTKTNLESILSYPKDFTCVHQALKGFTTKGVTSVSQIFHSPDLAIRDTFVNASRTLYSSSPRVLSNNSDANLELINTWVAKNTNNKISRLLDSLPSDTRLVLLNAIYLSAKWKTTFDPKKTRMEPFHFKNSVIKVPMMNSKKYPVAHFIDQTLKAKVGQLQLSHNLSLVILVPQNLKHRLEDMEQALSPSVFKAIMEKLEMSKFQPTLLTLPRIKVTTSQDMLSIMEKLEFFDFSYDLNLCGLTEDPDLQVSAMQHQTVLELTETGVEAAAASAISVARTLLVFEVQQPFLFVLWDQQHKFPVFMGRVYDPRA
infarct size [9]: reduced infarct size
